From EP3046573B1, “AMYLIN ANALOGUES” (Zealand Pharma A/S, priority 2013, dated 2015)
Read-outs that look alike come from different tables or passages of the source. Numbered stars: 1 amine (or outer) side, 2 acyl side, 3 side chain; on linkers, the order of the positions; unused ones are H or OH. Bridge positions count the residues as written; N and C are the ends. Square brackets hold non-standard residues; d marks the D form. Peptide text beside a SMILES is read from it. * marks the point of attachment. C20 diacid = O=C(O)CCCCCCCCCCCCCCCCCCC(=O)*; γGlu = O=C(O)[C@H](CCC(=O)[*:2])N[*:1]; Hyp = O=C(O)[C@@H]1C[C@@H](O)CN1; NMeI = CC[C@H](C)[C@H](NC)C(=O)O; Sar = CNCC(=O)O

Key:
[1] = Assessment of physical stability: fibril formation detected with Thioflavin T (ThT), lag-time; assay type: physicochemical; conditions: 1 mg/ml peptide, 40 µM ThT, FND = Fibrillation not detected; for Fibrillation lag time (hours) pH 4.0 (Ac): 50 mM acetate buffer pH 4.0, 96 hours at 40°C; for Fibrillation lag time (hours) pH 7.0 (His): 50 mM histidine buffer pH 7.0, 96 hours at 40°C; for Fibrillation lag time (hours) pH 7.0 (Ph): 50 mM phosphate buffer pH 7.0, 96 hours at 40°C
How it was run: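 Test peptide at 1 mg/ml with 40 µM ThT in 50 mM phosphate (pH 7.0), 50 mM histidine (pH 7.0) or 50 mM acetate (pH 4.0), in triplicate, 40° C. for 96 h. Fluorescence read every 10 min after 300 s agitation. Lag-time (h) taken as intersection of linear fits to initial stable and growth phases.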

[2] = target: T1, human amylin receptor 3 (hAMYR3) consisting of hCTR2 co-expressed with human Receptor Activity Modifying Protein 3 (hRAMP3) (Homo sapiens, UniProt O60896+P30988); experiment: hAMYR3 assay: induction of cAMP (AlphaScreen cAMP Assay kit) in COS7 cells expressing hAMYR3; assay type: cell-based
T1 construct: expressed in transfected cells
T1 sequence (P30988 25-474): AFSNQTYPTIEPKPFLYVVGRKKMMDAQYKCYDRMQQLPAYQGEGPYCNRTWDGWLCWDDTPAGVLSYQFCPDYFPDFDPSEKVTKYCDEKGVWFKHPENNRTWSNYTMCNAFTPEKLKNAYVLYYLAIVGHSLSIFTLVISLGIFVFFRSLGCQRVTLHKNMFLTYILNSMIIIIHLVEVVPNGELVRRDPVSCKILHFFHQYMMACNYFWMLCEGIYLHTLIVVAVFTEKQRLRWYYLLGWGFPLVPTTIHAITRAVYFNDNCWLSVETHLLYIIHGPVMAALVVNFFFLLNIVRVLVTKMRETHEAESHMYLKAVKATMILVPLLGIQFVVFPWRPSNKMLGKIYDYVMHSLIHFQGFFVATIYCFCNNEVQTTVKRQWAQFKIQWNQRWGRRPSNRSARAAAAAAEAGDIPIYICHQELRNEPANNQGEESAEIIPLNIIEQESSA
T1 sequence (O60896 24-148 partner): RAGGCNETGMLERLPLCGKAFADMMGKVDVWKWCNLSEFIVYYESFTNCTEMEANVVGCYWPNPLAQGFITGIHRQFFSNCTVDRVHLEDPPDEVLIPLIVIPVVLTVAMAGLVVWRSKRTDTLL
How it was run: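 cAMP accumulation read by AlphaScreen in lysates of RAMP-naive COS7 cells stably transfected with hCTR2 plus hRAMP3. Cells exposed to peptide dilutions for 15 min, 37° C, with 100 µM IBMX; 4PL fitting gave EC50 and efficacy relative to pramlintide.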

Sprague Dawley (SD) rats = experiment: Acute food intake and body weight in normal Sprague Dawley rats; assay type: in vivo; conditions: vehicle-corrected, dose 30 nmol/kg sc, once; for Body weight loss (%) after 96 hours: mean ± SEM, n = 8
How it was run: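 Normal male-unspecified SD rats, n = 8 per group, given a single s.c. peptide dose of 30 nmol/kg just before dark phase, with vehicle and positive control groups. Food intake recorded at 0, 4, 7, 10, 24, 48, 72 and 96 h; body weight daily; means ± SEM.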

[3] = cAMP induction in COS7 cells expressing hAMYR3, average of a minimum of 3 determinations, read-out: hAMY R3 EC50

CC[C@H](C)[C@@H](C(=O)N[C@@H](CC(C)C)C(=O)N[C@@H](CO)C(=O)N[C@@H](CO)C(=O)N[C@H](C(=O)N[C@@H](CCC(=O)O)C(=O)N[C@H](C(=O)NCC(=O)N[C@@H](CO)C(=O)N[C@@H](CCC(=O)O)C(=O)N[C@H](C(=O)N1CCC[C@H]1C(N)=O)[C@@H](C)O)C(C)C)[C@@H](C)O)N(C)C(=O)[C@H](C)NC(=O)CN(C)C(=O)[C@H](Cc1ccccc1)NC(=O)[C@H](CO)NC(=O)[C@H](CO)NC(=O)[C@H](CCCNC(=N)N)NC(=O)[C@H](Cc1c[nH]cn1)NC(=O)[C@H](CC(C)C)NC(=O)[C@H](Cc1ccccc1)NC(=O)[C@H](CCC(=O)O)NC(=O)[C@H](C)NC(=O)[C@H](CC(C)C)NC(=O)[C@H](CCCNC(=N)N)NC(=O)[C@H](CCC(=O)O)NC(=O)[C@@H](NC(=O)[C@H](C)NC(=O)[C@@H]1CSSC[C@H](NC(=O)[C@H](CCCNC(=N)N)NC(=O)CC[C@H](NC(=O)CCCCCCCCCCCCCCCCCCC(=O)O)C(=O)O)C(=O)NCC(=O)N[C@@H]([C@@H](C)O)C(=O)N[C@@H](C)C(=O)N[C@@H]([C@@H](C)O)C(=O)N1)[C@@H](C)O [Compound 162, [19CD]-isoGlu-RC()GTATC()ATERLAEFLHRSSF-Gly(Me)-A-Ile(Me)-LSSTEVGSETP-NH2] ({C20 diacid-γGlu}-RCGTATCATERLAEFLHRSSF[Sar]A[NMeI]LSSTEVGSETP-NH2; disulfide 2-7)
Fibrillation lag time (hours) pH 4.0 (Ac) [1]: FND
Fibrillation lag time (hours) pH 7.0 (His) [1]: FND
Fibrillation lag time (hours) pH 7.0 (Ph) [1]: FND
EC50 [2, 3]: 0.14 nM
Food intake inhibition (%) after 48 hours (Sprague Dawley (SD) rats): 99%
Body weight loss (%) after 96 hours (Sprague Dawley (SD) rats): 13 ± 2.2%

CC[C@H](C)[C@@H](C(=O)N[C@@H](CC(C)C)C(=O)N[C@@H](CO)C(=O)N[C@@H](CO)C(=O)N[C@H](C(=O)N[C@@H](CCC(=O)O)C(=O)N[C@H](C(=O)NCC(=O)N[C@@H](CO)C(=O)N[C@@H](CCC(=O)O)C(=O)N[C@H](C(=O)N1C[C@H](O)C[C@H]1C(N)=O)[C@@H](C)O)C(C)C)[C@@H](C)O)N(C)C(=O)[C@H](C)NC(=O)CN(C)C(=O)[C@H](Cc1ccccc1)NC(=O)[C@H](CO)NC(=O)[C@H](CO)NC(=O)[C@H](CCCNC(=N)N)NC(=O)[C@H](Cc1c[nH]cn1)NC(=O)[C@H](CC(C)C)NC(=O)[C@H](Cc1ccccc1)NC(=O)[C@H](CCC(=O)O)NC(=O)[C@H](C)NC(=O)[C@H](CC(C)C)NC(=O)[C@H](CCCNC(=N)N)NC(=O)[C@H](CCC(=O)O)NC(=O)[C@@H](NC(=O)[C@H](C)NC(=O)[C@@H]1CSSC[C@H](NC(=O)[C@H](CCCNC(=N)N)NC(=O)CC[C@H](NC(=O)CCCCCCCCCCCCCCCCCCC(=O)O)C(=O)O)C(=O)NCC(=O)N[C@@H]([C@@H](C)O)C(=O)N[C@@H](C)C(=O)N[C@@H]([C@@H](C)O)C(=O)N1)[C@@H](C)O [Compound 166, [19CD]-isoGlu-RC()GTATC()ATERLAEFLHRSSF-Gly(Me)-A-Ile(Me)-LSSTEVGSET-Hyp-NH2] ({C20 diacid-γGlu}-RCGTATCATERLAEFLHRSSF[Sar]A[NMeI]LSSTEVGSET[Hyp]-NH2; disulfide 2-7)
Fibrillation lag time (hours) pH 4.0 (Ac) [1]: FND
Fibrillation lag time (hours) pH 7.0 (His) [1]: FND
Fibrillation lag time (hours) pH 7.0 (Ph) [1]: FND
EC50 [2, 3]: 0.11 nM
Food intake inhibition (%) after 48 hours (Sprague Dawley (SD) rats): 99%
Body weight loss (%) after 96 hours (Sprague Dawley (SD) rats): 12 ± 1.6%

CC[C@H](C)[C@@H](C(=O)N[C@@H](CC(C)C)C(=O)N[C@@H](CO)C(=O)N[C@@H](CO)C(=O)N[C@H](C(=O)N[C@@H](CC(=O)O)C(=O)N[C@H](C(=O)NCC(=O)N[C@@H](CO)C(=O)N[C@@H](CC(=O)O)C(=O)N[C@H](C(=O)N1CCC[C@H]1C(N)=O)[C@@H](C)O)C(C)C)[C@@H](C)O)N(C)C(=O)[C@H](C)NC(=O)CN(C)C(=O)[C@H](Cc1ccccc1)NC(=O)[C@H](CO)NC(=O)[C@H](CO)NC(=O)[C@H](CCCNC(=N)N)NC(=O)[C@H](Cc1c[nH]cn1)NC(=O)[C@H](CC(C)C)NC(=O)[C@H](Cc1ccccc1)NC(=O)[C@H](CCC(=O)O)NC(=O)[C@H](C)NC(=O)[C@H](CC(C)C)NC(=O)[C@H](CCCNC(=N)N)NC(=O)[C@H](CC(=O)O)NC(=O)[C@@H](NC(=O)[C@H](C)NC(=O)[C@@H]1CSSC[C@H](NC(=O)[C@H](CCCNC(=N)N)NC(=O)CC[C@H](NC(=O)CCCCCCCCCCCCCCCCCCC(=O)O)C(=O)O)C(=O)N2CCC[C@H]2C(=O)N[C@@H]([C@@H](C)O)C(=O)N[C@@H](C)C(=O)N[C@@H]([C@@H](C)O)C(=O)N1)[C@@H](C)O [Compound 172, [19CD]-isoGlu-RC()PTATC()ATDRLAEFLHRSSF-Gly(Me)-A-Ile(Me)-LSSTDVGSDTP-NH2] ({C20 diacid-γGlu}-RCPTATCATDRLAEFLHRSSF[Sar]A[NMeI]LSSTDVGSDTP-NH2; disulfide 2-7)
Fibrillation lag time (hours) pH 4.0 (Ac) [1]: FND
Fibrillation lag time (hours) pH 7.0 (His) [1]: FND
Fibrillation lag time (hours) pH 7.0 (Ph) [1]: FND
EC50 [2, 3]: 0.095 nM
Food intake inhibition (%) after 48 hours (Sprague Dawley (SD) rats): 99%
Body weight loss (%) after 96 hours (Sprague Dawley (SD) rats): 13 ± 1.1%

CC[C@H](C)[C@@H](C(=O)N[C@@H](CC(C)C)C(=O)N[C@@H](CO)C(=O)N[C@@H](CO)C(=O)N[C@H](C(=O)N[C@@H](CC(N)=O)C(=O)N[C@H](C(=O)NCC(=O)N[C@@H](CO)C(=O)N[C@@H](CC(N)=O)C(=O)N[C@H](C(=O)N1CCC[C@H]1C(N)=O)[C@@H](C)O)C(C)C)[C@@H](C)O)N(C)C(=O)[C@H](C)NC(=O)CN(C)C(=O)[C@H](Cc1ccccc1)NC(=O)[C@H](CC(N)=O)NC(=O)[C@H](CC(N)=O)NC(=O)[C@H](CO)NC(=O)[C@H](CO)NC(=O)[C@H](CCCNC(=N)N)NC(=O)[C@H](Cc1c[nH]cn1)NC(=O)[C@H](CC(C)C)NC(=O)[C@H](Cc1ccccc1)NC(=O)[C@H](CCC(=O)O)NC(=O)[C@H](C)NC(=O)[C@H](CC(C)C)NC(=O)[C@H](CCCNC(=N)N)NC(=O)[C@H](CCC(N)=O)NC(=O)[C@@H](NC(=O)[C@H](C)NC(=O)[C@@H]1CSSC[C@H](NC(=O)[C@H](Cc2c[nH]c3ccccc23)NC(=O)[C@H](CCCNC(=N)N)NC(=O)CC[C@H](NC(=O)CCCCCCCCCCCCCCCCCCC(=O)O)C(=O)O)C(=O)N[C@@H](CC(N)=O)C(=O)N[C@@H]([C@@H](C)O)C(=O)N[C@@H](C)C(=O)N[C@@H]([C@@H](C)O)C(=O)N1)[C@@H](C)O [Compound 174, [19CD]-isoGlu-RWC()NTATC()ATQRLAEFLHRSSNNF-Gly(Me)-A-Ile(Me)-LSSTNVGSNTP-NH2] ({C20 diacid-γGlu}-RWCNTATCATQRLAEFLHRSSNNF[Sar]A[NMeI]LSSTNVGSNTP-NH2; disulfide 3-8)
Fibrillation lag time (hours) pH 4.0 (Ac) [1]: FND
Fibrillation lag time (hours) pH 7.0 (His) [1]: FND
Fibrillation lag time (hours) pH 7.0 (Ph) [1]: FND
EC50 [2]: 0.18 nM
Food intake inhibition (%) after 48 hours (Sprague Dawley (SD) rats): 99%
Body weight loss (%) after 96 hours (Sprague Dawley (SD) rats): 8 ± 1.4%
